# Source: patent EP1089755B1, “PHARMACEUTICAL PREPARATIONS FOR USE IN COMBATTING OR PREVENTING SURFACE INFECTIONS CAUSED BY MICROORGANISMS” (priority 1998, dated 2000)
# Columns and labels:
# C. glabrata Y110 [1] = assay: MIC of antifungal agents (96-well turbidity assay, 24 hours); format: cell-based; conditions: for MIC: Nakaseomyces glabratus, Y110, 24 h, read-out: minimum inhibitory concentrations (MIC)
# C. tropicana Y140 = assay: as above; format: cell-based; conditions: isolate Y140 (RPMI), RPMI-medium instead of SLM, read-out: minimum inhibitory concentrations (MIC)
# C. albicans Y106 = assay: as above; format: cell-based; conditions: Candida albicans, isolate Y106, SLM, read-out: minimum inhibitory concentrations (MIC)
# C. glabrata Y111 = assay: as above; format: cell-based; conditions: Nakaseomyces glabratus, isolate Y111, SLM, read-out: minimum inhibitory concentrations (MIC)
# C. glabrata Y112 = assay: as above; format: cell-based; conditions: Nakaseomyces glabratus, isolate Y112, SLM, read-out: minimum inhibitory concentrations (MIC)
# C. albicans Y127 = assay: as above; format: cell-based; conditions: isolate Y127, SLM; for MIC: Candida albicans, read-out: minimum inhibitory concentrations (MIC)
# C. albicans Y098 = assay: as above; format: cell-based; conditions: Candida albicans, isolate Y098, SLM, read-out: minimum inhibitory concentrations (MIC)
# C. albicans ATCC 10231 = assay: as above; format: cell-based; conditions: Candida albicans, isolate 10231 (ATCC strain), SLM, read-out: minimum inhibitory concentrations (MIC)
# Candida glabrata Y110 = assay: MIC in the presence of saliva (SLM or SLM/Saliva, pH 7.5); format: cell-based; conditions: Nakaseomyces glabratus
# C. glabrata Y110 [2] = assay: Synergy experiments (8 by 8 dilution matrix, Prichard and Shipman method); format: cell-based, Candida glabrata
# C. glabrata Y110 [3] = assay: Candida growth inhibition and MIC at several pH's in SLM or RPMI (96-well turbidity assay); format: cell-based, Candida glabrata; conditions: for MIC: Nakaseomyces glabratus, read-out: minimal inhibitory concentrations (MIC)
compound,measurement,setting,value
"Nc1nc(=O)[nH]cc1F [5-Fluorocytosine, 5-fluorocytosine]",MIC,"C. glabrata Y110 [1]; isolate Y110 (RPMI), RPMI-medium instead of SLM",0.029 ± 0.005 µg/mL
same,MIC,C. tropicana Y140,35 ± 7.07 µg/mL
"C[C@@H]1[C@H](O)[C@@H](C)/C=C/C=C/C=C/C=C/C=C/C=C/C=C/[C@H](O[C@@H]2O[C@H](C)[C@@H](O)[C@H](N)[C@@H]2O)C[C@@H]2O[C@](O)(C[C@@H](O)C[C@@H](O)[C@H](O)CC[C@@H](O)C[C@@H](O)CC(=O)O[C@H]1C)C[C@H](O)[C@H]2C(=O)O [Amphoterricin B, Amphotericin B]",MIC,C. albicans Y106,0.082 ± 0.03 µg/mL
same,MIC,C. glabrata Y111,0.14 ± 0.07 µg/mL
same,MIC,"C. glabrata Y110 [1]; isolate Y110, SLM",0.173 ± 0.06 µg/mL
same,MIC,C. glabrata Y112,0.4 ± 0.05 µg/mL
same,MIC,C. albicans Y127,0.15 µg/mL
same,minimum inhibitory concentrations (MIC),C. albicans Y127,0.15 ± 0.07 µg/mL
same,MIC,C. albicans Y098,0.08 ± 0.03 µg/mL
same,MIC,C. albicans ATCC 10231,0.06 ± 0.05 µg/mL
"OC(Cn1cncn1)(Cn1cncn1)c1ccc(F)cc1F [Fluconazole, fluconazole]",MIC,C. albicans Y106,10 µg/mL
same,MIC,C. glabrata Y111,24 ± 7 µg/mL
same,MIC,"C. glabrata Y110 [1]; isolate Y110, SLM",159 µg/mL
same,minimum inhibitory concentrations (MIC),"C. glabrata Y110 [1]; isolate Y110, SLM",156 ± 50 µg/mL
same,MIC,"Candida glabrata Y110; Y110, SLM, pH 7.5",100 µg/mL
same,MIC,"Candida glabrata Y110; Y110, SLM/Saliva (50%/50%), 24 hours",40 µg/mL
same,MIC,"Candida glabrata Y110; Y110, SLM, pH 7.5, 24 hours",100 µg/mL
same,MIC,C. albicans Y127,10 µg/mL
same,UV,C. glabrata Y110 [2]; Fluconazole 0.0033 mg/ml alone,1.150
same,UV,C. glabrata Y110 [2]; Fluconazole 0.0066 mg/ml alone,1.167
same,UV,C. glabrata Y110 [2]; Fluconazole 0.01 mg/ml alone,1.154
same,UV,C. glabrata Y110 [2]; Fluconazole 0.033 mg/ml alone,1.127
same,UV,C. glabrata Y110 [2]; Fluconazole 0.1 mg/ml alone,0.618
same,UV,C. glabrata Y110 [2]; Fluconazole 0.2 mg/ml alone,0.003
same,UV,C. glabrata Y110 [2]; Fluconazole 0.33 mg/ml alone,0.003
same,UV,C. glabrata Y110 [2]; Fluconazole 0.5 mg/ml alone,0.004
same,inhibition at 3.3 µg/mL,"C. glabrata Y110 [2]; Nakaseomyces glabratus, Y110, Fluconazole 0.0033 mg/ml alone",0%
same,inhibition at 6.6 µg/mL,"C. glabrata Y110 [2]; Nakaseomyces glabratus, Y110, Fluconazole 0.0066 mg/ml alone",0%
same,inhibition at 10 µg/mL,"C. glabrata Y110 [2]; Nakaseomyces glabratus, Y110, Fluconazole 0.01 mg/ml alone",0%
same,inhibition at 33 µg/mL,"C. glabrata Y110 [2]; Nakaseomyces glabratus, Y110, Fluconazole 0.033 mg/ml alone",0%
same,inhibition at 100 µg/mL,"C. glabrata Y110 [2]; Nakaseomyces glabratus, Y110, Fluconazole 0.1 mg/ml alone",39.5%
same,inhibition at 200 µg/mL,"C. glabrata Y110 [2]; Nakaseomyces glabratus, Y110, Fluconazole 0.2 mg/ml alone",99.8%
same,inhibition at 330 µg/mL,"C. glabrata Y110 [2]; Nakaseomyces glabratus, Y110, Fluconazole 0.33 mg/ml alone",99.8%
same,inhibition at 500 µg/mL,"C. glabrata Y110 [2]; Nakaseomyces glabratus, Y110, Fluconazole 0.5 mg/ml alone",99.6%
same,MIC,"C. glabrata Y110 [3]; Y110, RPMI, pH 5.0, 24 hours",250 µg/mL
same,MIC,"C. glabrata Y110 [3]; Y110, RPMI, pH 6.0, 24 hours",110 µg/mL
same,MIC,"C. glabrata Y110 [3]; Y110, RPMI, pH 7.0, 24 hours",60 µg/mL
same,MIC,"C. glabrata Y110 [3]; Y110, SLM, pH 5.6, 24 hours",200 µg/mL
same,MIC,"C. glabrata Y110 [3]; Y110, SLM, pH 6.5, 24 hours",100 µg/mL
same,MIC,"C. glabrata Y110 [3]; Y110, SLM, pH 7.5, 24 hours",100 µg/mL
same,effect of an increase in pH of the medium on inhibition,C. glabrata Y110 [3]; SLM and RPMI,more efficient inhibition
